Key:
[1] = log P by reversed-phase HPLC, acidic range; assay type: physicochemical; settings: reversed-phase C18 HPLC column, formic acid in water/acetonitrile
Method: The log P values were determined according to EEC Directive 79/831 Annex V.A8 by HPLC (high-performance liquid chromatography) on a reversed-phase column (C18) using the following methods: ^[a] The log P value is determined by LC-UV measurement in the acidic range using 0.9 ml/1 formic acid in water and 1.0 ml/1 formic acid in acetonitrile as mobile phases (linear gradient from 10% acetonitrile to 95% acetonitrile). Calibration was carried out using a homologous series of straight-chain alkan-2-ones (having 3 to 16 carbon atoms) with known log P values. The values between successive alkanones are determined by linear regression.

Myzus persicae [2] = test: Myzus persicae oral test; assay type: in vivo; settings: 4 ppm, after 5 days
Method: Myzus persicae—Oral Test Solvent: 100 parts by weight of acetone To produce a suitable active compound formulation, 1 part by weight of active compound is dissolved using the specified parts by weight of solvent and made up with water until the desired concentration is attained. 50 μl of the active compound preparation are transferred into microtitre plates and made up to a final volume of 200 μl with 150 μl of IPL41 insect medium (33%+15% sugar). Subsequently, the plates are sealed with parafilm, which a mixed population of green peach aphids (Myzus persicae) within a second microtitre plate is able to puncture and imbibe the solution through. After 5 days, the efficacy in % is determined. 100% means that all the aphids have been killed; 0% means that no aphids have been killed.

Myzus persicae [3] = test: Myzus persicae spray test (MYZUPE), comparative, bell pepper plants; assay type: in vivo; settings: 144 h, 6 dat (days after treatment), read-out: % Efficacy MYZUPE
Method: Myzus persicae—Spray Test (MYZUPE) Solvent: 14 parts by weight of dimethylformamide Emulsifier: alkylaryl polyglycol ether To produce a suitable active compound formulation, 1 part by weight of active compound is dissolved using the stated parts by weight of solvent and made up with water containing an emulsifier concentration of 1000 ppm until the desired concentration is attained. To produce further test concentrations, the formulation is diluted with emulsifier-containing water. If the addition of ammonium salts or/and penetrants is required, these are each added in a concentration of 1000 ppm to the formulation solution. Bell pepper plants (Capsicum annuum) severely infested with the green peach aphid (Myzus persicae) are treated by spraying with the active compound formulation in the desired concentration. After the desired time, the kill in % is determined. 100% means that all the animals have been killed; 0% means that no animals have been killed.

Diabrotica balteata [4] = test: Diabrotica balteata drench test (DIABBA), comparative; assay type: in vivo; settings: soil, 192 h, 8 dat (days after treatment), read-out: % Efficacy DIABBA
Method: Diabrotica balteata—Drench Test (DIABBA) Solvent: 7 parts by weight of dimethylformamide Emulsifier: 2 parts by weight of alkylaryl polyglycol ether To produce a suitable active compound preparation, 1 part by weight of active compound is mixed with the specified amounts of solvent and emulsifier, and the concentrate is diluted with water to the desired concentration, it being necessary to include the volume of soil which is drenched in the calculation. It should be ensured that a concentration of 40 ppm of emulsifier in the soil is not exceeded. To produce further test concentrations, water is used for dilution. In each case 5 […] (Zea mays) are sown into pots filled with earth, and the next day the pots are watered with the active compound preparation of the desired concentration. After one day, about 25 L2 larvae of the banded cucumber beetle (Diabrotica balteata) are added. After 8 days, the efficacy in % is determined. 100% means that all 5 plants have germinated and grown; 0% means that none of the plants has emerged.

Spodoptera frugiperda = Spodoptera frugiperda spray test; assay type: in vivo; settings: 100 g/ha, corn leaf disks, after 7 days
Method: Spodoptera frugiperda—Spray Test Solvent: 78.0 parts by weight of acetone • • 1.5 parts by weight of dimethylformamide Emulsifier: alkylaryl polyglycol ether To produce a suitable active compound formulation, 1 part by weight of active compound is dissolved using the stated parts by weight of solvent and made up with water containing an emulsifier concentration of 1000 ppm until the desired concentration is attained. To produce further test concentrations, the formulation is diluted with emulsifier-containing water. Leaf disks of corn (Zea mays) are sprayed with an active compound formulation of the desired concentration and, after drying, populated with caterpillars of the fall armyworm (Spodoptera frugiperda). After 7 days, the efficacy in % is determined. 100% means that all the caterpillars have been killed; 0% means that no caterpillar has been killed.

Phaedon cochleariae = Phaedon cochleariae spray test; assay type: in vivo; settings: 100 g/ha, Chinese cabbage leaf disks, after 7 days
Method: Phaedon cochleariae—Spray Test
Solvent: 78.0 parts by weight of acetone • • 1.5 parts by weight of dimethylformamide
Emulsifier: alkylaryl polyglycol ether
To produce a suitable active compound formulation, 1 part by weight of active compound is dissolved using the stated parts by weight of solvent and made up with water containing an emulsifier concentration of 1000 ppm until the desired concentration is attained. To produce further test concentrations, the formulation is diluted with emulsifier-containing water.
Disks of Chinese cabbage leaves (Brassica pekinensis) are sprayed with an active compound formulation of the desired concentration and, after drying, populated with larvae of the mustard beetle (Phaedon cochleariae).
After 7 days, the efficacy in % is determined. 100% means that all the beetle larvae have been killed; 0% means that no beetle larvae have been killed.

Myzus persicae [5] = test: Myzus persicae spray test (Chinese cabbage leaf disks); assay type: in vivo; settings: 100 g/ha, after 5 days
Method: Myzus persicae—Spray Test Solvent: 78 parts by weight of acetone • • 1.5 parts by weight of dimethylformamide Emulsifier: alkylaryl polyglycol ether To produce a suitable active compound formulation, 1 part by weight of active compound is dissolved using the stated parts by weight of solvent and made up with water containing an emulsifier concentration of 1000 ppm until the desired concentration is attained. To produce further test concentrations, the formulation is diluted with emulsifier-containing water. Disks of Chinese cabbage leaves (Brassica pekinensis) infested by all stages of the green peach aphid (Myzus persicae) are sprayed with an active compound formulation of the desired concentration. After 5 days, the efficacy in % is determined. 100% means that all the aphids have been killed; 0% means that no aphids have been killed.

Ctenocephalides felis = Ctenocephalides felis oral test; assay type: in vivo; settings: 100 ppm, oral via blood, after 2 days
Method: Ctenocephalides felis—Oral Test
Solvent: dimethyl sulfoxide
To produce a suitable active compound formulation, 10 mg of active compound are mixed with 0.5 ml of dimethyl sulfoxide. Dilution with citrated cattle blood gives the desired concentration.
About 20 unfed adult cat fleas (Ctenocephalides fells) are placed into a chamber which is closed at the top and bottom with gauze. A metal cylinder whose bottom end is closed with parafilm is placed onto the chamber. The cylinder contains the blood/active compound formulation, which can be imbibed by the fleas through the parafilm membrane.
After 2 days, the kill in % is determined. 100% means that all of the fleas have been killed; 0% means that none of the fleas have been killed.

Diabrotica balteata [6] = test: Diabrotica balteata spray test; assay type: in vivo; settings: 500 g/ha (=160 μg/cavity), after 7 days
Method: Diabrotica balteata—Spray Test Solvent: 78 parts by weight of acetone • • 1.5 parts by weight of dimethylformamide Emulsifier: alkylaryl polyglycol ether To produce a suitable active compound formulation, 1 part by weight of active compound is dissolved using the stated parts by weight of solvent and made up with water containing an emulsifier concentration of 1000 ppm until the desired concentration is attained. To produce further test concentrations, the formulation is diluted with emulsifier-containing water. Pre-swollen wheat grains (Triticum aestivum) are incubated in a multiwell plate filled with agar and a little water for one day (5 seed grains per cavity). The germinated wheat grains are sprayed with an active compound formulation of the desired concentration. Subsequently, each cavity is infected with 10-20 beetle larvae of Diabrotica balteata. After 7 days, the efficacy in % is determined. 100% means that all wheat plants have grown as in the untreated, uninfected control; 0% means that no wheat plant has grown.

Boophilus microplus = Boophilus microplus injection test; assay type: in vivo; settings: 20 μg/animal, assessed after 7 days
Method: Boophilus microplus—Injection Test Solvent: dimethyl sulfoxide To produce a suitable active compound formulation, 10 mg of active compound are mixed with 0.5 ml of solvent and the concentrate is diluted to the desired concentration with solvent. 1 μl of the active compound solution is injected into the abdomen of 5 engorged adult female cattle ticks (Boophilus microplus). The animals are transferred into dishes and kept in a climate-controlled room. Efficacy is assessed after 7 days by laying of fertile eggs. Eggs which are not visibly fertile are stored in a climate-controlled cabinet until the larvae hatch after about 42 days. An efficacy of 100% means that none of the ticks has laid any fertile eggs; 0% means that all the eggs are fertile.

| Compound | chromatographic logP [1] | efficacy (Myzus persicae [2]) [%] | Emax at 0.8 ppm (Myzus persicae [3]) [%] | Emax at 0.8 ppm (Diabrotica balteata [4]) [%] | efficacy (Spodoptera frugiperda) [%] | efficacy (Phaedon cochleariae) [%] | efficacy (Myzus persicae [5]) [%] | efficacy (kill in %) (Ctenocephalides felis) [%] | efficacy (Diabrotica balteata [6]) [%] | efficacy (no laying of fertile eggs) (Boophilus microplus) [%] |
| --- | --- | --- | --- | --- | --- | --- | --- | --- | --- | --- |
| Cn1c(-c2nn3cc(C4(C#N)CC4)ccc3c2Br)nc2cc(OC(F)(F)F)cnc21 [1-[3-Bromo-2-[3-methyl-6-(trifluoromethoxy)imidazo[4,5-b]pyridin-2-yl]pyrazolo[1,5-a]pyridin-6-yl]cyclopropanecarbonitrile] | 3.9 | – | – | – | – | – | – | – | – | – |
| CCS(=O)(=O)c1c(-c2nc3cc(OC(F)(F)F)cnc3n2C)nn2cc(C3(C#N)CC3)ccc12 [Example I-1, 1-[3-Ethylsulfonyl-2-[3-methyl-6-(trifluoromethoxy)imidazo[4,5-b]pyridin-2-yl]pyrazolo[1,5-a]pyridin-6-yl]cyclopropanecarbonitrile] | 3.18 | 100 | 100 | 80 | 100 | 100 | 100 | 100 | – | – |
| CCS(=O)(=O)c1c(-c2nc3cc(OC(F)(F)F)ccc3n2C)nn2cc(C3(C#N)CC3)ccc12 [Example I-2, 1-[3-Ethylsulfonyl-2-[1-methyl-5-(trifluoromethoxy)benzimidazol-2-yl]pyrazolo[1,5-a]pyridin-6-yl]cyclopropanecarbonitrile] | 3.29 | 100 | – | – | 100 | – | – | – | 100 | – |
| CCS(=O)(=O)c1c(-c2nc3cc4c(cc3n2C)OC(F)(F)O4)nn2cc(C3(C#N)CC3)ccc12 [Example I-3, 1-[2-(2,2-Difluoro-7-methyl-[1,3]dioxolo[4,5-f]benzimidazol-6-yl)-3-ethylsulfonylpyrazolo[1,5-a]pyridin-6-yl]cyclopropanecarbonitrile] | 3.18 | 100 | – | – | 100 | – | – | – | 100 | – |
| CCS(=O)(=O)c1c(-c2nc3cc4c(nc3n2C)OC(F)(F)O4)nn2cc(C3(C#N)CC3)ccc12 [Example I-4, 1-[3-Ethylsulfonyl-2-[2,2-difluoro-7-methyl-[1,3]dioxoloimidazo[4,5-b]pyridin-6-yl]pyrazolo[1,5-a]pyridin-6-yl]cyclopropanecarbonitrile] | 3.22 | 100 | – | – | 100 | 100 | 90 | 100 | – | 80 |
| CCS(=O)(=O)c1c(-c2nc3cc(OC(F)(F)C(F)(F)F)cnc3n2C)nn2cc(C3(C#N)CC3)ccc12 [Example I-5, 1-[3-Ethylsulfonyl-2-[3-methyl-6-(1,1,2,2,2-pentafluoroethoxy)imidazo[4,5-b]pyridin-2-yl]pyrazolo[1,5-a]pyridin-6-yl]cyclopropanecarbonitrile] | 3.76 | – | – | – | 100 | – | – | – | 100 | – |
| CCS(=O)(=O)c1c(-c2nc3cc(C(F)(F)F)cnc3n2C)nn2cc(C3(C#N)CC3)ccc12 [prior art according to WO2017/155103, reference compound] | – | – | 40 | 50 | – | – | – | – | – | – |

— patent publication US20220033418A1, “HETEROCYCLENE DERIVATIVES AS PEST CONTROL AGENTS” (Bayer Aktiengesellschaft, priority 2018, published 2022)
